Reference: patent US11780893B2, “Kv1.3 blockers” (Zealand Pharma A/S, priority 2019, dated 2023)
Bridge positions count the residues as written; N and C are the ends. Square brackets hold non-standard residues; d marks the D form. Peptide text beside a SMILES is read from it. Nle = CCCC[C@H](N)C(=O)O

Molecular target: T1, human Kv1.3 voltage-gated K+ channel (Homo sapiens, UniProt P22001)
T1 construct: host or cells: CHO-DUKX
Assay: cell-based
Settings: inhibition of thallium flux, CHO-DUKX cells with human Kv1.3; read-out: IC50

T1 sequence (P22001 whole entry): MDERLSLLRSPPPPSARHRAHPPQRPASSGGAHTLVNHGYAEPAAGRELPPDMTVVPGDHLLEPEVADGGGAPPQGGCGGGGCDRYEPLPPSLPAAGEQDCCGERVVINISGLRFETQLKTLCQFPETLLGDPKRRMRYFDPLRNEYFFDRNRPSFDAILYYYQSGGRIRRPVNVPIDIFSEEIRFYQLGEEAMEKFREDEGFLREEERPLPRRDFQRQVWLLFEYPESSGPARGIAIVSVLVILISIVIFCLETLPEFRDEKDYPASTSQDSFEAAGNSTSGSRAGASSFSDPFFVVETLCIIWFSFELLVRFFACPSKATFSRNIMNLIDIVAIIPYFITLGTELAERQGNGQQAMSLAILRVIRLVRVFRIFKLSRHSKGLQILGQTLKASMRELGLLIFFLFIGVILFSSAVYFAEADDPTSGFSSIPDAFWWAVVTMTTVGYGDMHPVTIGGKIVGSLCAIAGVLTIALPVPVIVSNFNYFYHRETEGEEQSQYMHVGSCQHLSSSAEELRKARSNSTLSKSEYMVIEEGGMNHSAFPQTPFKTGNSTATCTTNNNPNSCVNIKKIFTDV

SMILES: CCCC[C@@H]1NC(=O)[C@@H]2CSSC[C@H](NC(C)=O)C(=O)N[C@@H](CO)C(=O)N[C@@H](C)C(=O)N[C@@H](CO)C(=O)N[C@@H](C(C)C)C(=O)N[C@@H](CCC(=O)O)C(=O)N[C@H]3CSSC[C@H](NC(=O)[C@H](CCCCN)NC(=O)[C@H](CCCCN)NC(=O)[C@H](CC(N)=O)NC1=O)C(=O)N[C@@H](CCCCN)C(=O)N[C@H](C(=O)N[C@@H](Cc1ccc(O)cc1)C(N)=O)CSSC[C@H](NC(=O)[C@H](CCCCN)NC(=O)[C@H](CCC(N)=O)NC(=O)[C@H](CCCCN)NC3=O)C(=O)N[C@@H](CC(C)C)C(=O)N[C@@H](CCCCN)C(=O)N[C@@H](C)C(=O)N[C@@H]([C@@H](C)CC)C(=O)NCC(=O)N[C@@H](CO)C(=O)N[C@@H]([C@@H](C)CC)C(=O)N[C@@H](Cc1ccccc1)C(=O)NCC(=O)N[C@@H](CCCCN)C(=O)N2 [Compound 112] (Ac-CSASVECKQKCLKAIGSIFGKC[Nle]NKKCKCY-NH2; disulfide 1-22, 7-27, 11-29)
- IC50: 1.7 nM

SMILES: CCCC[C@H](NC(=O)[C@@H]1CCCN1)C(=O)N[C@@H](CCC(=O)O)C(=O)N[C@@H](CCCC)C(=O)N[C@@H](CCCNC(=N)N)C(=O)N[C@H]1CSSC[C@@H]2NC(=O)[C@H](CCCCN)NC(=O)CNC(=O)[C@H](Cc3ccccc3)NC(=O)[C@H]([C@@H](C)CC)NC(=O)[C@H](CO)NC(=O)CNC(=O)[C@H]([C@@H](C)CC)NC(=O)[C@H](C)NC(=O)[C@H](C)NC(=O)[C@H](CC(C)C)NC(=O)[C@@H]3CSSC[C@@H](C(=O)N[C@@H](Cc4ccc(O)cc4)C(=O)N4CCC[C@H]4C(=O)N[C@@H](CCCNC(=N)N)C(=O)N[C@@H](CC(C)C)C(=O)O)NC(=O)[C@H](CCCCN)NC(=O)[C@H](CSSC[C@H](NC(=O)[C@H](CCC(=O)O)NC(=O)[C@H](C(C)C)NC(=O)[C@H](CO)NC(=O)[C@H](C)NC(=O)[C@H](CO)NC1=O)C(=O)N[C@@H](CCCCN)C(=O)N[C@@H](CCC(N)=O)C(=O)N[C@@H](CCCCN)C(=O)N3)NC(=O)[C@H](CCCCN)NC(=O)[C@H](CCCCN)NC(=O)[C@H](CC(N)=O)NC(=O)[C@H](CCCC)NC2=O [Compound 124] (H-P[Nle]E[Nle]RCSASVECKQKCLAAIGSIFGKC[Nle]NKKCKCYPRL-OH; disulfide 6-27, 12-32, 16-34)
- IC50: 1.47 nM

SMILES: CCCC[C@H](NC(=O)[C@@H]1CCCN1)C(=O)N[C@@H](CCC(=O)O)C(=O)N[C@@H](CCCC)C(=O)N[C@@H](CCCNC(=N)N)C(=O)N[C@H]1CSSC[C@@H]2NC(=O)[C@H](CCCCN)NC(=O)CNC(=O)[C@H](Cc3ccccc3)NC(=O)[C@H]([C@@H](C)CC)NC(=O)[C@H](CO)NC(=O)CNC(=O)[C@H]([C@@H](C)CC)NC(=O)[C@H](C)NC(=O)[C@H](C)NC(=O)[C@H](CC(C)C)NC(=O)[C@@H]3CSSC[C@@H](C(=O)N[C@@H](Cc4ccc(O)cc4)C(=O)N4CCC[C@H]4C(=O)N[C@@H](CCCNC(=N)N)C(=O)O)NC(=O)[C@H](CCCCN)NC(=O)[C@H](CSSC[C@H](NC(=O)[C@H](CCC(=O)O)NC(=O)[C@@H]4CCCN4C(=O)[C@H](CO)NC(=O)[C@H](C)NC(=O)[C@H](CO)NC1=O)C(=O)N[C@@H](CCCCN)C(=O)N[C@@H](CCC(N)=O)C(=O)N[C@@H](CCCCN)C(=O)N3)NC(=O)[C@H](CCCCN)NC(=O)[C@H](CCCCN)NC(=O)[C@H](CC(N)=O)NC(=O)[C@H](CCCC)NC2=O [Compound 138] (H-P[Nle]E[Nle]RCSASPECKQKCLAAIGSIFGKC[Nle]NKKCKCYPR-OH; disulfide 6-27, 12-32, 16-34)
- IC50: 0.228 nM

SMILES: CCCC[C@H](NC(=O)[C@@H]1CCCN1)C(=O)N[C@@H](CCC(=O)O)C(=O)N[C@@H](CCCC)C(=O)N[C@@H](CCCNC(=N)N)C(=O)N[C@H]1CSSC[C@@H]2NC(=O)[C@H](CCCCN)NC(=O)CNC(=O)[C@H](Cc3ccccc3)NC(=O)[C@H]([C@@H](C)CC)NC(=O)[C@H](CO)NC(=O)CNC(=O)[C@H]([C@@H](C)CC)NC(=O)[C@H](C)NC(=O)[C@H](C)NC(=O)[C@H](CC(C)C)NC(=O)[C@@H]3CSSC[C@@H](C(=O)N[C@@H](Cc4ccc(O)cc4)C(=O)N4CCC[C@H]4C(=O)N[C@@H](CCCNC(=N)N)C(=O)O)NC(=O)[C@H](CCCCN)NC(=O)[C@H](CSSC[C@H](NC(=O)[C@H](CCC(=O)O)NC(=O)[C@H](C(C)C)NC(=O)[C@H](CO)NC(=O)[C@H](CO)NC(=O)[C@H](CO)NC1=O)C(=O)N[C@@H](CCCCN)C(=O)N[C@@H](CCC(N)=O)C(=O)N[C@@H](CCCCN)C(=O)N3)NC(=O)[C@H](CCCCN)NC(=O)[C@H](CCCCN)NC(=O)[C@H](CC(N)=O)NC(=O)[C@H](CCCC)NC2=O [Compound 135] (H-P[Nle]E[Nle]RCSSSVECKQKCLAAIGSIFGKC[Nle]NKKCKCYPR-OH; disulfide 6-27, 12-32, 16-34)
- IC50: 0.336 nM

SMILES: CCCC[C@H](NC(=O)[C@@H]1CCCN1)C(=O)N[C@@H](CCC(=O)O)C(=O)N[C@@H](CCCC)C(=O)N[C@@H](CCCNC(=N)N)C(=O)N[C@H]1CSSC[C@@H]2NC(=O)[C@H](CCCCN)NC(=O)CNC(=O)[C@H](Cc3ccccc3)NC(=O)[C@H]([C@@H](C)CC)NC(=O)[C@H](CO)NC(=O)CNC(=O)[C@H]([C@@H](C)CC)NC(=O)[C@H](C)NC(=O)[C@H](C)NC(=O)[C@H](CC(C)C)NC(=O)[C@@H]3CSSC[C@@H](C(=O)N[C@@H](Cc4ccc(O)cc4)C(=O)N4CCC[C@H]4C(=O)N[C@@H](CCCNC(=N)N)C(=O)O)NC(=O)[C@H](CCCCN)NC(=O)[C@H](CSSC[C@H](NC(=O)[C@H](CCC(=O)O)NC(=O)[C@H](CCC(N)=O)NC(=O)[C@H](CO)NC(=O)[C@H](C)NC(=O)[C@H](CO)NC1=O)C(=O)N[C@@H](CCCCN)C(=O)N[C@@H](CCC(N)=O)C(=O)N[C@@H](CCCCN)C(=O)N3)NC(=O)[C@H](CCCCN)NC(=O)[C@H](CCCCN)NC(=O)[C@H](CC(N)=O)NC(=O)[C@H](CCCC)NC2=O [Compound 139] (H-P[Nle]E[Nle]RCSASQECKQKCLAAIGSIFGKC[Nle]NKKCKCYPR-OH; disulfide 6-27, 12-32, 16-34)
- IC50: 0.453 nM

SMILES: CCCC[C@H](NC(=O)[C@@H]1CCCN1)C(=O)N[C@@H](CCC(=O)O)C(=O)N[C@@H](CCCC)C(=O)N[C@@H](CCCNC(=N)N)C(=O)N[C@H]1CSSC[C@@H]2NC(=O)[C@H](CCCCN)NC(=O)CNC(=O)[C@H](Cc3ccccc3)NC(=O)[C@H]([C@@H](C)CC)NC(=O)[C@H](CO)NC(=O)CNC(=O)[C@H]([C@@H](C)CC)NC(=O)[C@H](C)NC(=O)[C@H](C)NC(=O)[C@H](CC(C)C)NC(=O)[C@@H]3CSSC[C@@H](C(=O)N[C@@H](Cc4ccc(O)cc4)C(=O)N4CCC[C@H]4C(=O)N[C@@H](CCCNC(=N)N)C(=O)O)NC(=O)[C@H](CCCCN)NC(=O)[C@H](CSSC[C@H](NC(=O)[C@H](CCC(=O)O)NC(=O)[C@H](C(C)C)NC(=O)[C@H](Cc4ccccc4)NC(=O)[C@H](C)NC(=O)[C@H](CO)NC1=O)C(=O)N[C@@H](CCCCN)C(=O)N[C@@H](CCC(N)=O)C(=O)N[C@@H](CCCCN)C(=O)N3)NC(=O)[C@H](CCCCN)NC(=O)[C@H](CCCCN)NC(=O)[C@H](CC(N)=O)NC(=O)[C@H](CCCC)NC2=O [Compound 145] (H-P[Nle]E[Nle]RCSAFVECKQKCLAAIGSIFGKC[Nle]NKKCKCYPR-OH; disulfide 6-27, 12-32, 16-34)
- IC50: 8.26 nM

SMILES: CCCC[C@H](NC(=O)[C@@H]1CCCN1)C(=O)N[C@@H](CCC(=O)O)C(=O)N[C@@H](CCCC)C(=O)N[C@@H](CCCNC(=N)N)C(=O)N[C@H]1CSSC[C@@H]2NC(=O)[C@H](CCCCN)NC(=O)CNC(=O)[C@H](Cc3ccccc3)NC(=O)[C@H]([C@@H](C)CC)NC(=O)[C@H](CO)NC(=O)CNC(=O)[C@H]([C@@H](C)CC)NC(=O)[C@H](C)NC(=O)[C@H](C)NC(=O)[C@H](CC(C)C)NC(=O)[C@@H]3CSSC[C@@H](C(=O)N[C@@H](Cc4ccc(O)cc4)C(=O)N4CCC[C@H]4C(=O)N[C@@H](CCCNC(=N)N)C(=O)O)NC(=O)[C@H](CCCCN)NC(=O)[C@H](CSSC[C@H](NC(=O)[C@H](CCC(=O)O)NC(=O)[C@H](C(C)C)NC(=O)[C@H](CO)NC(=O)[C@H](C)NC(=O)[C@H](Cc4ccccc4)NC1=O)C(=O)N[C@@H](CCCCN)C(=O)N[C@@H](CCC(N)=O)C(=O)N[C@@H](CCCCN)C(=O)N3)NC(=O)[C@H](CCCCN)NC(=O)[C@H](CCCCN)NC(=O)[C@H](CC(N)=O)NC(=O)[C@H](CCCC)NC2=O [Compound 143] (H-P[Nle]E[Nle]RCFASVECKQKCLAAIGSIFGKC[Nle]NKKCKCYPR-OH; disulfide 6-27, 12-32, 16-34)
- IC50: 0.316 nM

SMILES: CCCC[C@H](NC(=O)[C@@H]1CCCN1)C(=O)N[C@@H](CCC(=O)O)C(=O)N[C@@H](CCCC)C(=O)N[C@@H](CCCNC(=N)N)C(=O)N[C@H]1CSSC[C@@H]2NC(=O)[C@H](CCCCN)NC(=O)CNC(=O)[C@H](Cc3ccccc3)NC(=O)[C@H]([C@@H](C)CC)NC(=O)[C@H](CO)NC(=O)CNC(=O)[C@H]([C@@H](C)CC)NC(=O)[C@H](C)NC(=O)[C@H](C)NC(=O)[C@H](CC(C)C)NC(=O)[C@@H]3CSSC[C@@H](C(=O)N[C@@H](Cc4ccc(O)cc4)C(=O)N4CCC[C@H]4C(=O)N[C@@H](CCCNC(=N)N)C(=O)O)NC(=O)[C@H](CCCCN)NC(=O)[C@H](CSSC[C@H](NC(=O)[C@H](CCC(=O)O)NC(=O)[C@H](C(C)C)NC(=O)[C@H](CO)NC(=O)[C@H](CC(C)C)NC(=O)[C@H](CO)NC1=O)C(=O)N[C@@H](CCCCN)C(=O)N[C@@H](CCC(N)=O)C(=O)N[C@@H](CCCCN)C(=O)N3)NC(=O)[C@H](CCCCN)NC(=O)[C@H](CCCCN)NC(=O)[C@H](CC(N)=O)NC(=O)[C@H](CCCC)NC2=O [Compound 136] (H-P[Nle]E[Nle]RCSLSVECKQKCLAAIGSIFGKC[Nle]NKKCKCYPR-OH; disulfide 6-27, 12-32, 16-34)
- IC50: 6.24 nM
